{"source": "ChEMBL document CHEMBL1201862", "about": "“PubChem BioAssay data set” (2004)", "assay_in_all_cases": "DTP human tumour cell line panel, 48 h", "key": {"786-0": {"test_system": "786-0"}, "CAKI-1": {"test_system": "CAKI-1"}, "CCRF-CEM": {"test_system": "CCRF-CEM"}, "DLD-1": {"test_system": "DLD-1"}, "DMS-273": {"test_system": "DMS-273"}, "HCT-15": {"test_system": "HCT-15"}, "HOP-62": {"test_system": "HOP-62"}, "Hs-578T": {"test_system": "Hs-578T"}, "KM12": {"test_system": "KM12"}, "MDA-MB-231": {"test_system": "MDA-MB-231"}, "MDA-MB-435": {"test_system": "MDA-MB-435"}, "MDA-N": {"test_system": "MDA-N"}, "NCI/ADR-RES": {"test_system": "NCI/ADR-RES"}, "OVCAR-5": {"test_system": "OVCAR-5"}, "SF-268": {"test_system": "SF-268"}, "SF-295": {"test_system": "SF-295"}, "SK-MEL-5": {"test_system": "SK-MEL-5"}, "T47D": {"test_system": "T47D"}, "TK-10": {"test_system": "TK-10"}, "UACC-257": {"test_system": "UACC-257"}}, "note": "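Step 1: Grow cells in 96-well plates. Step 2: Expose to compound for 48 hours at 5 concentrations. Step 3: Interpolate endpoints linearly; if unreached, use highest concentration. GI50 = concentration required for 50% inhibition of growth.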 The source made the active and inactive calls. No stated cut-off is given here; in the data, active = GI50 up to about 1.1 µM and inactive = higher."}
{"smiles": "Cc1c2cc[n+](C)c(C)c2cc2c1[nH]c1ccccc12", "values": [{"measurement": "GI50", "setting": "786-0", "value": "0.646 µM (active)"}, {"measurement": "GI50", "setting": "CAKI-1", "value": "31.3 µM (inactive)"}, {"measurement": "GI50", "setting": "CCRF-CEM", "value": "6.9 µM (inactive)"}, {"measurement": "GI50", "setting": "DLD-1", "value": "10.5 µM (inactive)"}, {"measurement": "GI50", "setting": "DMS-273", "value": "3.63 µM (inactive)"}, {"measurement": "GI50", "setting": "HCT-15", "value": "> 100", "unit": "µM"}, {"measurement": "GI50", "setting": "HOP-62", "value": "3.16 µM (inactive)"}, {"measurement": "GI50", "setting": "Hs-578T", "value": "0.818 µM (active)"}, {"measurement": "GI50", "setting": "KM12", "value": "2.65 µM (inactive)"}, {"measurement": "GI50", "setting": "MDA-MB-231", "value": "2.51 µM (inactive)"}, {"measurement": "GI50", "setting": "MDA-MB-435", "value": "16.2 µM (inactive)"}, {"measurement": "GI50", "setting": "MDA-N", "value": "27.5 µM (inactive)"}, {"measurement": "GI50", "setting": "NCI/ADR-RES", "value": "71.1 µM (inactive)"}, {"measurement": "GI50", "setting": "OVCAR-5", "value": "19.2 µM (inactive)"}, {"measurement": "GI50", "setting": "SF-268", "value": "0.984 µM (active)"}, {"measurement": "GI50", "setting": "SF-295", "value": "2.27 µM (inactive)"}, {"measurement": "GI50", "setting": "SK-MEL-5", "value": "2.44 µM (inactive)"}, {"measurement": "GI50", "setting": "T47D", "value": "2.14 µM (inactive)"}, {"measurement": "GI50", "setting": "TK-10", "value": "> 89.3 µM (inactive)"}, {"measurement": "GI50", "setting": "UACC-257", "value": "10.8 µM (inactive)"}]}
{"smiles": "C=CCc1cc(-c2cc(CC=C)c(O)c(CN(CC)CC)c2)cc(CN(CC)CC)c1O", "values": [{"measurement": "GI50", "setting": "786-0", "value": "30.5 µM (inactive)"}, {"measurement": "GI50", "setting": "CAKI-1", "value": "50.2 µM (inactive)"}, {"measurement": "GI50", "setting": "CCRF-CEM", "value": "28.6 µM (inactive)"}, {"measurement": "GI50", "setting": "DLD-1", "value": "70.1 µM (inactive)"}, {"measurement": "GI50", "setting": "DMS-273", "value": "32.2 µM (inactive)"}, {"measurement": "GI50", "setting": "HCT-15", "value": 15.8, "unit": "µM"}, {"measurement": "GI50", "setting": "HOP-62", "value": "47.4 µM (inactive)"}, {"measurement": "GI50", "setting": "Hs-578T", "value": "28.5 µM (inactive)"}, {"measurement": "GI50", "setting": "KM12", "value": "43.3 µM (inactive)"}, {"measurement": "GI50", "setting": "MDA-MB-231", "value": "26 µM (inactive)"}, {"measurement": "GI50", "setting": "MDA-MB-435", "value": "37.2 µM (inactive)"}, {"measurement": "GI50", "setting": "MDA-N", "value": "31.4 µM (inactive)"}, {"measurement": "GI50", "setting": "NCI/ADR-RES", "value": "73.1 µM (inactive)"}, {"measurement": "GI50", "setting": "OVCAR-5", "value": "18.8 µM (inactive)"}, {"measurement": "GI50", "setting": "SF-268", "value": "76 µM (inactive)"}, {"measurement": "GI50", "setting": "SF-295", "value": "33 µM (inactive)"}, {"measurement": "GI50", "setting": "SK-MEL-5", "value": "11.1 µM (inactive)"}, {"measurement": "GI50", "setting": "T47D", "value": "43 µM (inactive)"}, {"measurement": "GI50", "setting": "TK-10", "value": "62.7 µM (inactive)"}, {"measurement": "GI50", "setting": "UACC-257", "value": "23.6 µM (inactive)"}]}
{"smiles": "Cc1cnc(NCCCN(C)C)c2c1[nH]c1ccc3cc(O)ccc3c12", "values": [{"measurement": "GI50", "setting": "786-0", "value": "0.2 µM (active)"}, {"measurement": "GI50", "setting": "CAKI-1", "value": "0.566 µM (active)"}, {"measurement": "GI50", "setting": "CCRF-CEM", "value": "1.01 µM (active)"}, {"measurement": "GI50", "setting": "DLD-1", "value": "0.49 µM (active)"}, {"measurement": "GI50", "setting": "DMS-273", "value": "0.462 µM (active)"}, {"measurement": "GI50", "setting": "HCT-15", "value": 4.63, "unit": "µM"}, {"measurement": "GI50", "setting": "HOP-62", "value": "0.267 µM (active)"}, {"measurement": "GI50", "setting": "Hs-578T", "value": "0.325 µM (active)"}, {"measurement": "GI50", "setting": "KM12", "value": "1.39 µM (inactive)"}, {"measurement": "GI50", "setting": "MDA-MB-231", "value": "0.879 µM (active)"}, {"measurement": "GI50", "setting": "MDA-MB-435", "value": "1.1 µM (active)"}, {"measurement": "GI50", "setting": "MDA-N", "value": "1.04 µM (active)"}, {"measurement": "GI50", "setting": "NCI/ADR-RES", "value": "3.44 µM (inactive)"}, {"measurement": "GI50", "setting": "OVCAR-5", "value": "0.925 µM (active)"}, {"measurement": "GI50", "setting": "SF-268", "value": "0.288 µM (active)"}, {"measurement": "GI50", "setting": "SF-295", "value": "0.7 µM (active)"}, {"measurement": "GI50", "setting": "SK-MEL-5", "value": "0.815 µM (active)"}, {"measurement": "GI50", "setting": "T47D", "value": "0.485 µM (active)"}, {"measurement": "GI50", "setting": "TK-10", "value": "6.04 µM (inactive)"}, {"measurement": "GI50", "setting": "UACC-257", "value": "4.6 µM (inactive)"}]}
{"smiles": "COC1N(C2CC(O)C(CO)O2)C(=O)NC(=O)C1(F)Br", "note": "(stereo not given)", "values": [{"measurement": "GI50", "setting": "786-0", "value": "5.01 µM (inactive)"}, {"measurement": "GI50", "setting": "CAKI-1", "value": "> 19.9 µM (inactive)"}, {"measurement": "GI50", "setting": "CCRF-CEM", "value": "3.53 µM (inactive)"}, {"measurement": "GI50", "setting": "DLD-1", "value": "16.5 µM (inactive)"}, {"measurement": "GI50", "setting": "DMS-273", "value": "14.7 µM (inactive)"}, {"measurement": "GI50", "setting": "HCT-15", "value": 13.4, "unit": "µM"}, {"measurement": "GI50", "setting": "HOP-62", "value": "1.45 µM (inactive)"}, {"measurement": "GI50", "setting": "Hs-578T", "value": "24.5 µM (inactive)"}, {"measurement": "GI50", "setting": "KM12", "value": "21.6 µM (inactive)"}, {"measurement": "GI50", "setting": "MDA-MB-231", "value": "> 57.1 µM (inactive)"}, {"measurement": "GI50", "setting": "MDA-MB-435", "value": "39.6 µM (inactive)"}, {"measurement": "GI50", "setting": "MDA-N", "value": "18.7 µM (inactive)"}, {"measurement": "GI50", "setting": "NCI/ADR-RES", "value": "10.7 µM (inactive)"}, {"measurement": "GI50", "setting": "OVCAR-5", "value": "77.8 µM (inactive)"}, {"measurement": "GI50", "setting": "SF-268", "value": "1.2 µM (inactive)"}, {"measurement": "GI50", "setting": "SF-295", "value": "2.83 µM (inactive)"}, {"measurement": "GI50", "setting": "SK-MEL-5", "value": "7.66 µM (inactive)"}, {"measurement": "GI50", "setting": "T47D", "value": "> 72.3 µM (inactive)"}, {"measurement": "GI50", "setting": "TK-10", "value": "> 100 µM (inactive)"}, {"measurement": "GI50", "setting": "UACC-257", "value": "70.5 µM (inactive)"}]}
{"smiles": "COc1ccc(C2C(C)C(=O)C(C)C(c3ccc(OC)cc3)N2N=O)cc1", "note": "(stereo not given)", "values": [{"measurement": "GI50", "setting": "786-0", "value": "84.3 µM (inactive)"}, {"measurement": "GI50", "setting": "CAKI-1", "value": "246 µM (inactive)"}, {"measurement": "GI50", "setting": "CCRF-CEM", "value": "> 700 µM (inactive)"}, {"measurement": "GI50", "setting": "DLD-1", "value": "> 1000 µM (inactive)"}, {"measurement": "GI50", "setting": "DMS-273", "value": "> 514 µM (inactive)"}, {"measurement": "GI50", "setting": "HCT-15", "value": "> 1000", "unit": "µM"}, {"measurement": "GI50", "setting": "HOP-62", "value": "87.1 µM (inactive)"}, {"measurement": "GI50", "setting": "Hs-578T", "value": "56.5 µM (inactive)"}, {"measurement": "GI50", "setting": "KM12", "value": "> 678 µM (inactive)"}, {"measurement": "GI50", "setting": "MDA-MB-231", "value": "27.2 µM (inactive)"}, {"measurement": "GI50", "setting": "MDA-MB-435", "value": "166 µM (inactive)"}, {"measurement": "GI50", "setting": "MDA-N", "value": "163 µM (inactive)"}, {"measurement": "GI50", "setting": "NCI/ADR-RES", "value": "258 µM (inactive)"}, {"measurement": "GI50", "setting": "OVCAR-5", "value": "393 µM (inactive)"}, {"measurement": "GI50", "setting": "SF-268", "value": "171 µM (inactive)"}, {"measurement": "GI50", "setting": "SF-295", "value": "126 µM (inactive)"}, {"measurement": "GI50", "setting": "SK-MEL-5", "value": "> 575 µM (inactive)"}, {"measurement": "GI50", "setting": "T47D", "value": "127 µM (inactive)"}, {"measurement": "GI50", "setting": "TK-10", "value": "90.6 µM (inactive)"}, {"measurement": "GI50", "setting": "UACC-257", "value": "> 703 µM (inactive)"}]}
